From PubChem BioAssay (NCI)
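Growth conditions: 96-well plates. Treatment: test compound, 48 hours, 5 concentrations. Analysis: linear interpolation between bracketing concentrations; unreached endpoints set to highest concentration. At the GI50, growth is halved. TGI: total growth inhibition.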

Legend:
Test in all cases: growth of human tumour cells (NCI), 48 h
KM12 colon = system: KM12 colon
NCI-H460 lung = system: NCI-H460 lung
A498 renal = system: A498 renal
MALME-3M melanoma = system: MALME-3M melanoma
CCRF-CEM leukemia = system: CCRF-CEM leukemia
SF-295 CNS = system: SF-295 CNS
SK-MEL-5 melanoma = system: SK-MEL-5 melanoma
SK-OV-3 ovarian = system: SK-OV-3 ovarian
SF-268 CNS = system: SF-268 CNS
SR leukemia = system: SR leukemia
IGROV1 ovarian = system: IGROV1 ovarian

| SMILES | TGI (KM12 colon) | TGI (NCI-H460 lung) | TGI (A498 renal) | TGI (MALME-3M melanoma) | TGI (CCRF-CEM leukemia) | TGI (SF-295 CNS) | TGI (SK-MEL-5 melanoma) | TGI (SK-OV-3 ovarian) | TGI (SF-268 CNS) | TGI (SR leukemia) | TGI (IGROV1 ovarian) | GI50 (SR leukemia) | GI50 (IGROV1 ovarian) |
| --- | --- | --- | --- | --- | --- | --- | --- | --- | --- | --- | --- | --- | --- |
| O=C1CCSc2c(cnc3ccccc23)N1 | > 100 µM | > 100 µM | > 100 µM | > 100 µM | > 100 µM | > 100 µM | > 100 µM | > 100 µM | > 100 µM | > 100 µM | > 100 µM | – | – |
| NC(=O)NC(=O)c1ccc(NC(=O)CBr)cc1 | 10.1 µM | 9.74 µM | 36 µM | 3.96 µM | 0.376 µM | 27.3 µM | 3.23 µM | 9.49 µM | 3.09 µM | 1.01 µM | 4.78 µM | – | – |
| COc1cc(/C=N/NC2=NCCCN2)ccc1O | > 100 µM | > 100 µM | > 100 µM | > 100 µM | > 100 µM | > 100 µM | > 100 µM | > 100 µM | > 100 µM | > 100 µM | > 100 µM | – | – |
| CC(C)=CCC[C@@H](C)C1=C(Nc2ccccc2)C(O)=C(C)C(=O)C1=O | 20.7 µM | > 40 µM | > 30.4 µM | 19.9 µM | 0.874 µM | 11.1 µM | 7.97 µM | > 36.4 µM | 25.2 µM | 6.08 µM | 17.6 µM | – | – |
| CNC(=S)NNC1=NCCCCN1 | > 100 µM | > 100 µM | > 100 µM | > 100 µM | > 100 µM | > 100 µM | > 100 µM | > 100 µM | > 100 µM | > 100 µM | > 100 µM | – | – |
| CC(C)N1CCCOC(c2ccc([N+](=O)[O-])cc2)O1 (stereo not given) | > 100 µM | > 100 µM | > 100 µM | > 100 µM | > 100 µM | > 100 µM | > 100 µM | > 100 µM | > 100 µM | > 100 µM | > 100 µM | – | – |
| CCCCCNC1=CC(=O)c2ccccc2C1=O | > 100 µM | > 100 µM | > 76.7 µM | > 95.3 µM | > 100 µM | > 70.3 µM | 77.8 µM | > 84.7 µM | > 77.1 µM | > 100 µM | > 100 µM | – | – |
| C#C[C@]1(O)CC[C@H]2[C@@H]3CCC4=C/C(=N\OCCN5CCCC5)CC[C@]4(C)[C@H]3CC[C@@]21C | 19.6 µM | 40.6 µM | 50.4 µM | 23.4 µM | 51.6 µM | 14.5 µM | 15.4 µM | 54.6 µM | 30.1 µM | 13.3 µM | 23.2 µM | – | – |
| Cc1nc2ccc(N=NN(C)C)cc2[nH]1 | > 100 µM | > 100 µM | > 100 µM | > 100 µM | > 100 µM | > 100 µM | > 100 µM | > 100 µM | > 100 µM | > 100 µM | > 100 µM | – | – |
| COc1ccc2c(c1)/C(=C\c1cccc(/C=C3/C(=O)Nc4ccc(OC)cc43)n1)C(=O)N2 | 4.64 µM | > 24.6 µM | 6.03 µM | 5.51 µM | > 38 µM | 30.3 µM | 2.24 µM | 17.3 µM | > 39.9 µM | 0.452 µM | > 100 µM | 0.209 µM | 2.2 µM |
| O=C1c2cccnc2C(=O)c2c1nc1ccccc1c2-c1cncc(-c2c3c(nc4ccccc24)C(=O)c2cccnc2C3=O)c1 | 2 µM | 0.516 µM | 5.39 µM | 1.52 µM | 2.08 µM | 1.62 µM | 0.52 µM | 2.1 µM | 1.25 µM | 0.0608 µM | 0.286 µM | – | – |
| O=Cc1ccc2c(c1)CC1(C2)Cc2ccc(C=O)cc2C1 | 60.4 µM | 32.8 µM | 69.7 µM | 46.1 µM | 5.9 µM | > 70.4 µM | 16.7 µM | > 100 µM | 44.6 µM | 6.77 µM | 54.5 µM | – | – |
| COc1cc(C2S/C(=C/c3ccccc3)C(=O)N2c2ccc([N+](=O)[O-])cc2)cc(OC)c1OC (stereo not given) | > 100 µM | > 100 µM | > 100 µM | > 100 µM | > 100 µM | > 100 µM | > 100 µM | > 100 µM | > 100 µM | > 100 µM | > 83.5 µM | – | – |
| CC1=CCC[C@]2(C)C1=CC(=O)O[C@H]2c1ccoc1 | > 100 µM | > 100 µM | > 100 µM | > 100 µM | > 100 µM | > 100 µM | > 100 µM | > 100 µM | > 100 µM | > 100 µM | > 100 µM | – | – |
| COc1ccc(CCN(C)C(=O)CC(C#N)(c2ccccc2)c2ccc(OC)c(OC)c2)cc1OC (stereo not given) | > 100 µM | > 100 µM | > 100 µM | > 100 µM | > 100 µM | > 100 µM | > 100 µM | > 100 µM | > 100 µM | 99.3 µM | > 100 µM | – | – |
| CC(C)(CCCCC(C)(C)NCC1COc2ccccc2O1)NCC1COc2ccccc2O1 (stereo not given) | > 10 µM | > 10 µM | > 10 µM | 4.65 µM | > 10 µM | > 10 µM | 2.95 µM | > 10 µM | > 10 µM | > 10 µM | > 10 µM | – | – |
| O=c1[nH]n(Cc2ccccc2CCl)c2ccc([N+](=O)[O-])cc12 | > 100 µM | 95.8 µM | > 100 µM | > 100 µM | > 100 µM | > 100 µM | 30.4 µM | 81.8 µM | > 100 µM | > 100 µM | > 100 µM | – | – |
| Cc1cc(NCC2CC/C(=C\C=C\c3ccccc3)C2=O)no1 (stereo not given) | > 100 µM | > 100 µM | > 100 µM | > 100 µM | > 100 µM | > 100 µM | > 100 µM | > 100 µM | > 100 µM | > 100 µM | > 100 µM | – | – |
